Data taken from ChEMBL document CHEMBL5678803, “Selective blockade of TRPA1 channel attenuates pathological pain without altering noxious cold sensation or body temperature regulation” (Pain, 2011).
Active and inactive are the calls of the source. The rule behind the calls is not given here.

Key:
[1] = Chemical reactivity of compound to 13C-labelled La antigen by ALARM NMR spectroscopic analysis; type: physicochemical
[2] = molecular target: Transient receptor potential cation channel subfamily A member 1 (Rattus norvegicus, UniProt Q6RI86); test: Antagonist activity at GFP-tagged rat TRPA1 transfected in HEK293F cells assessed as reduction in AITC-induced inward current at -60 mV holding potential by electrophysiological recordings; type: cell-based
Transient receptor potential cation channel subfamily A member 1, sequence (Q6RI86 whole entry): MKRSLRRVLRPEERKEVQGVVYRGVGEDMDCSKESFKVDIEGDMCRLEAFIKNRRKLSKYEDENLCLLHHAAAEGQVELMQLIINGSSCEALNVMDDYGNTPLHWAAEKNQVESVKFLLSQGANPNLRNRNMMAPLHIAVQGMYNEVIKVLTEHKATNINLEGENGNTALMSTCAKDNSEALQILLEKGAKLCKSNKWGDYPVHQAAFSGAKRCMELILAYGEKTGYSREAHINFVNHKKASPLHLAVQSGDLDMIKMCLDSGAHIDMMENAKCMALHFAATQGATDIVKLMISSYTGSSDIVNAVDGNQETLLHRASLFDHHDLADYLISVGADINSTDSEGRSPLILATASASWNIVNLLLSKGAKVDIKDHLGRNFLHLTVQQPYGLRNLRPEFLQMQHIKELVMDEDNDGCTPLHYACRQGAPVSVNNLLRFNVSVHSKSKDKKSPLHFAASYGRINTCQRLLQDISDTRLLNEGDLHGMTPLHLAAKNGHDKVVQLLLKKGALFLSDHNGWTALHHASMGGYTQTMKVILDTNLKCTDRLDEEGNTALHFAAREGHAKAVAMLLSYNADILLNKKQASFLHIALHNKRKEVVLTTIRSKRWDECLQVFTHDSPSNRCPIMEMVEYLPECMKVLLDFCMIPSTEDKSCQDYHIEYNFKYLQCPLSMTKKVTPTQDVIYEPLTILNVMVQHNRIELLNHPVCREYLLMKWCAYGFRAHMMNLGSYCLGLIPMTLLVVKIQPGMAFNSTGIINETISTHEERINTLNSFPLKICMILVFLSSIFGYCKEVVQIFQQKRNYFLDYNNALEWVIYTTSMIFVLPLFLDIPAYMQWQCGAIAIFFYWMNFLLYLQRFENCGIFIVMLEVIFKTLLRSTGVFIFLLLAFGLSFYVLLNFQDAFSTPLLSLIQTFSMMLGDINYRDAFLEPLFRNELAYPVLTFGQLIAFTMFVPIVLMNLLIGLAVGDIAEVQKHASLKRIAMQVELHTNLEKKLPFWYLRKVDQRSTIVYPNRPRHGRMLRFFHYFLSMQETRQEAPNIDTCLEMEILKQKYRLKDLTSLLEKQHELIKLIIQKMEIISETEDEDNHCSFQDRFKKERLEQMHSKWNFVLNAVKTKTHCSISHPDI

[3] = molecular target: T1, Transient receptor potential cation channel subfamily V member 2 (Rattus norvegicus) (UniProt Q9WUD2); test: Antagonist activity at rat TRPV2 expressed in HEK293F cells assessed as inhibition of 2APB-induced TRPV2 channel activation by FLIPR-based Ca2+ assay relative to control; type: cell-based; conditions: concentration not given here
T1 sequence (whole entry): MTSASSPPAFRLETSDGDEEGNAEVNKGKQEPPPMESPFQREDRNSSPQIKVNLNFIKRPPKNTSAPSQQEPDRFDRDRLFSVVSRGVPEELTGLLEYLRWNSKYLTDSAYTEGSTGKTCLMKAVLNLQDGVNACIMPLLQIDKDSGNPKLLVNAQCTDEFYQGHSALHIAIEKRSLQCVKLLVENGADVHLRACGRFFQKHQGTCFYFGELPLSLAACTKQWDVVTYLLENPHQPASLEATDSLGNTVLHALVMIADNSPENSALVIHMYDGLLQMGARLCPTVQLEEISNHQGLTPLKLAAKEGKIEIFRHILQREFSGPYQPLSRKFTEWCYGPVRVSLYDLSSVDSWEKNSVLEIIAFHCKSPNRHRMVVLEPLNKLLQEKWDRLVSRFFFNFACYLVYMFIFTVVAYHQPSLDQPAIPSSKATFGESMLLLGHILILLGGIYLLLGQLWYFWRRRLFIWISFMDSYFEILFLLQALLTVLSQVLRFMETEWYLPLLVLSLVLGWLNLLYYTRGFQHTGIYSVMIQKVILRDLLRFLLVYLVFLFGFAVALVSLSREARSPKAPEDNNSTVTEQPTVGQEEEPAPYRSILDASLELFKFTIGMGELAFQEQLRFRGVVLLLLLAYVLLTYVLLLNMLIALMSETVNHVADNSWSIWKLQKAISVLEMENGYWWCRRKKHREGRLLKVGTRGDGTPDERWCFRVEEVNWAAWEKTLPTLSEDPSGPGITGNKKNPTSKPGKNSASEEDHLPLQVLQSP

[4] = molecular target: T2, Transient receptor potential cation channel subfamily V member 3 (Homo sapiens) (UniProt Q8NET8); test: Antagonist activity at endogenous TRPV3 in human epithelial cells assessed as inhibition of 2APB-induced TRPV3 channel activation by FLIPR-based Ca2+ assay relative to control; conditions: Epithelial cell, concentration not given here
T2 sequence (whole entry): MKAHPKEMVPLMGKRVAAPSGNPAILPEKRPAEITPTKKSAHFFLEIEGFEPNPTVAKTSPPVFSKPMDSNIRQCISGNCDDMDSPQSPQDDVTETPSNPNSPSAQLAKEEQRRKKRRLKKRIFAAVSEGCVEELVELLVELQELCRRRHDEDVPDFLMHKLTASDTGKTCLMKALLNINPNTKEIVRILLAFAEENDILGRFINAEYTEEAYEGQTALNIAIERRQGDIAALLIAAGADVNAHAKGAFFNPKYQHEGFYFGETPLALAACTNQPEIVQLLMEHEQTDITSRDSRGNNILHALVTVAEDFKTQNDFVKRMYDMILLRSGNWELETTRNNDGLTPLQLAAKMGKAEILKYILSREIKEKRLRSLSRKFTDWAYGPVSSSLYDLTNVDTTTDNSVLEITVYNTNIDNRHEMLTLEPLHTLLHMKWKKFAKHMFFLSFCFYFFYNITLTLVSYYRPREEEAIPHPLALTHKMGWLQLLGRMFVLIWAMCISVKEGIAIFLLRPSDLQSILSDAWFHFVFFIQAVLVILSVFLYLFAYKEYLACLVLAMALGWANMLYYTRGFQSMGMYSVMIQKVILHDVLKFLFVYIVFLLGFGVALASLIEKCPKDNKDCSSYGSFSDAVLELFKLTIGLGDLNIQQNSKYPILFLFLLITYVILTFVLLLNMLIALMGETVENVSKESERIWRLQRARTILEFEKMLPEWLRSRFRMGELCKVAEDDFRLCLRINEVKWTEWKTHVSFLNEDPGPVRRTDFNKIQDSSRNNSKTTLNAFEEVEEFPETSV

[5] = molecular target: Transient receptor potential cation channel subfamily V member 4 (Homo sapiens, UniProt Q9HBA0); test: Antagonist activity at human TRPV4 expressed in HEK293F cells assessed as inhibition of mOsmo-induced TRPV4 channel activation by FLIPR-based Ca2+ assay relative to control; type: cell-based; conditions: concentration not given here
Transient receptor potential cation channel subfamily V member 4, sequence (Q9HBA0 whole entry): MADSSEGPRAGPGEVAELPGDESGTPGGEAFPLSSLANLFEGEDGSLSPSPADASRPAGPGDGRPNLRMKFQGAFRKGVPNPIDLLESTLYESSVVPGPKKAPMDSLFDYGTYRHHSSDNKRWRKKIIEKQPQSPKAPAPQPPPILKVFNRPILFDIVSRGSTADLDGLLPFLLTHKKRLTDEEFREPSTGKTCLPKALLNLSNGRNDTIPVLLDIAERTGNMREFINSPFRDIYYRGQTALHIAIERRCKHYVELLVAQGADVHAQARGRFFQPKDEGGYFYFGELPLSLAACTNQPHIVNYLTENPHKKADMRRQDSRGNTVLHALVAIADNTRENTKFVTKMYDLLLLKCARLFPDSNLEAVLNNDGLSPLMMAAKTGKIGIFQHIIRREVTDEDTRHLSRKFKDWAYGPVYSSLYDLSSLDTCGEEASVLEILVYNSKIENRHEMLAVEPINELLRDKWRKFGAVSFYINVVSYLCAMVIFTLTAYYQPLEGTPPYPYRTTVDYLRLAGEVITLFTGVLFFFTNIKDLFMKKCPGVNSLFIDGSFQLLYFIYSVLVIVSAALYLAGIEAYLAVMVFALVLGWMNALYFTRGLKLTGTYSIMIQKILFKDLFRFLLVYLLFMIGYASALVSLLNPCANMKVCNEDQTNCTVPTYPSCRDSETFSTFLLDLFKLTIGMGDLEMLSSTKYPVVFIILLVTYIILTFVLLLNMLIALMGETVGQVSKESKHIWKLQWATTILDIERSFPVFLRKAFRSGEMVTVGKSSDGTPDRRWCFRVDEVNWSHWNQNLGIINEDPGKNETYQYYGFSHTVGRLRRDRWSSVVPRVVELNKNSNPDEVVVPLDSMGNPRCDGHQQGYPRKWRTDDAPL

[6] = molecular target: Transient receptor potential cation channel subfamily M member 8 (Homo sapiens, UniProt Q7Z2W7); test: Antagonist activity at human TRPM8 expressed in HEK293F cells assessed as inhibition of menthol-induced TRPM8 channel activation by FLIPR-based Ca2+ assay relative to control; type: cell-based; conditions: concentration not given here
Transient receptor potential cation channel subfamily M member 8, sequence (Q7Z2W7 whole entry, looked up): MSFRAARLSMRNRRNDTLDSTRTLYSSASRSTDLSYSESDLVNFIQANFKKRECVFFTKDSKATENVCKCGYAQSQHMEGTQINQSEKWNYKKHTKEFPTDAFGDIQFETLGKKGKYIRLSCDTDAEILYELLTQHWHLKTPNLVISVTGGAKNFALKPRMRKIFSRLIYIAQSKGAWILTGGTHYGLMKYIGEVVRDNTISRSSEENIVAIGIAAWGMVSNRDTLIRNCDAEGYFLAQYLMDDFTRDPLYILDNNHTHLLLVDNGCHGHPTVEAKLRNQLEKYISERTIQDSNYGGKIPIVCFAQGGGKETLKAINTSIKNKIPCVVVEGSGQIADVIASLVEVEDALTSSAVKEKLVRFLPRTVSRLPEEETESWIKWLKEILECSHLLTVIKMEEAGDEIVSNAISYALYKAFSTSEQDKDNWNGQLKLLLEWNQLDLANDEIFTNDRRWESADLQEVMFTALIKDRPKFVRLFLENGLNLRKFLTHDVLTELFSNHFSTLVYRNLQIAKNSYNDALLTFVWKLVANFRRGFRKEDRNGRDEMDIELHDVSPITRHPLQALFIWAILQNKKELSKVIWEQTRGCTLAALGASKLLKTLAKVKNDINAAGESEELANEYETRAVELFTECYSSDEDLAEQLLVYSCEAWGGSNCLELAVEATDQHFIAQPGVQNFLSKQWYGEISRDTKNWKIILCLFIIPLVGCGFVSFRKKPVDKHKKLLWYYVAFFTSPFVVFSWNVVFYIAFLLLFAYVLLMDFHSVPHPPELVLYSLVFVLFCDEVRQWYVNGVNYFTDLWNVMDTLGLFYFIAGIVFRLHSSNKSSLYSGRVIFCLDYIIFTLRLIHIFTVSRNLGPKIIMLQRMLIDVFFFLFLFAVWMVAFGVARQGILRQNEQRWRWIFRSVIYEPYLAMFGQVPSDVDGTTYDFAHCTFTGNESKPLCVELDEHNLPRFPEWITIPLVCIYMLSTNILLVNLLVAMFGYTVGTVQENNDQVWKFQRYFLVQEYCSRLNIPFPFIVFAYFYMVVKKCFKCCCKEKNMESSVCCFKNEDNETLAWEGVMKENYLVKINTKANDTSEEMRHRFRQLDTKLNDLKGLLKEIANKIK

[7] = molecular target: Sodium-dependent dopamine transporter (Homo sapiens) (UniProt Q01959); test: Inhibition of dopamine transporter (unknown origin) at 10 micromol/L by radioligand binding assay; conditions: dose 10.0 µmol/L
Sodium-dependent dopamine transporter (Homo sapiens), sequence (Q01959 whole entry): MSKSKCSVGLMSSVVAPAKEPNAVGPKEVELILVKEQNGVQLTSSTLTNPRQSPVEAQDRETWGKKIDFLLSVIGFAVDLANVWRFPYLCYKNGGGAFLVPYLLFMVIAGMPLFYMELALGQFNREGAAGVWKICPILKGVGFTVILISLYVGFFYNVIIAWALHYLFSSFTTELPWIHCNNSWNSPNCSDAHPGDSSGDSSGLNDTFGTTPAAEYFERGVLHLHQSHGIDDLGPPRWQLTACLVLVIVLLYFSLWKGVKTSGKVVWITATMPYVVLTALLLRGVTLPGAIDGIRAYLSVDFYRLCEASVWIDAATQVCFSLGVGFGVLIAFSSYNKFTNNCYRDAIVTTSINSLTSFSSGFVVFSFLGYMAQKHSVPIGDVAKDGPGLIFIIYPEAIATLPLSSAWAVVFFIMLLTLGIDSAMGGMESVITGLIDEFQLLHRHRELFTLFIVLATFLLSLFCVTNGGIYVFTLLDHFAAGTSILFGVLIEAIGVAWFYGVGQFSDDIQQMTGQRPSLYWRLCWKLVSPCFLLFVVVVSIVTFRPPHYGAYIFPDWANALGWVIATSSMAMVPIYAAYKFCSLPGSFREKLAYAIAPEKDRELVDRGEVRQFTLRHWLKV

[8] = molecular target: Transient receptor potential cation channel subfamily A member 1 (Rattus norvegicus) (UniProt Q6RI86); test: Antagonist activity at endogenous TRPA1 in rat DRG neurons assessed as blockade of AITC-induced CGRP release at 5 micromol/L; type: cell-based; conditions: DRG neuron, filed as antagonist, dose 5.0 µmol/L
Transient receptor potential cation channel subfamily A member 1 (Rattus norvegicus), sequence (Q6RI86 whole entry): as the sequence (Q6RI86 whole entry) above

[9] = Half-life in rat at 2 mg/kg, po; type: ADME, organism-based; conditions: in vivo
[10] = Ratio of drug concentration in rat brain to plasma at 2 mg/kg, po; type: ADME, organism-based; conditions: read-out: BPR
[11] = Drug concentration in rat at 6.2 mg/kg, po measured after 60 mins; type: ADME, organism-based; conditions: in vivo, read-out: Drug uptake
[12] = Unbound drug concentration in rat at 62.1 mg/kg, po measured after 60 mins; type: ADME, organism-based; conditions: in vivo, 1 h
[13] = Tmax in rat at 2 mg/kg, po; type: ADME, organism-based; conditions: in vivo
Rattus norvegicus [14] = test: Analgesic activity in AITC-induced nocifensive response Sprague-Dawley rat model assessed as prevention of mustard oil-induced flinching behavior administered orally for 1 hrs; type: functional, organism-based; conditions: dose 6.2-62.1 mg/kg, route po
Rattus norvegicus [15] = test: Analgesic activity in MIA-induced osteoarthritic pain Sprague-Dawley rat model assessed as reversal of MIA-induced hind limb grip force deficit preadministered with MIA for 3 weeks followed by oral administration of compound for 1 hrs; type: functional; conditions: dose 6.2-62.1 mg/kg
[16] = Toxicity in Sprague-Dawley rat assessed as effect on body temperature at 20.7 to 62.1 mg/kg, po measured after 480 mins by radiotelemetric analysis; type: organism-based; conditions: in vivo, 8 h, dose 20.7-62.1 mg/kg
[17] = Toxicity in Sprague-Dawley rat assessed as effect on heart rate; conditions: in vivo
Rattus norvegicus [18] = test: Antiallodynic activity in CCI-induced neuropathic pain Sprague-Dawley rat model assessed as attenuation of mechanical allodynia at 6.2 to 62.1 mg/kg, po administered with compound for 1 hrs and measured 10 to 14 days after surgery; type: functional, organism-based; conditions: dose 6.2-62.1 mg/kg, time 241-337 hrs

CCC(=N\O)/C(C)=C/c1ccc(F)cc1 [A-079]
Stability [1]: Stable
IC50 [2]: 101 nM
inhibition [3]: < 20%
inhibition [4]: < 20%
inhibition [5]: < 20%
inhibition [6]: < 20%
inhibition [7]: 43%
Activity [8]: Active
half-life [9]: 48.6 min
Kp [10]: 0.75
concentration at 1 h [11]: 1540 nM
Drug uptake(free) [12]: 0.47 µmol/L
Tmax [13]: 30 min
Activity (Rattus norvegicus [14]): Dose-Dependent Effect
Activity (Rattus norvegicus [15]): Dose-Dependent Effect
ED50 (Rattus norvegicus [15]): 23.2 mg/kg
Activity [16]: Non-Toxic
Activity [17]: Non-Toxic
Activity (Rattus norvegicus [18]): inactive
